# Laboratory results taken from US11174268B2, “Benzenesulfonamide compouds and their use as therapeutic agents” (Xenon Pharmaceuticals Inc., priority 2016, dated 2021).
# Structures can show the parent of a compound that is named as a salt.
# Experiments:
# NaV1.1 = NaV1.1 (Homo sapiens (Human), UniProt P35498); assay: Sodium Influx Assay (Flux), NaV1.1; format: cell-based; conditions: Trex HEK293 cells, ANG2 dye, inactivated state;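 further: channels co-expressed with human β1 subunit and held open by modulators, cells exposed to compounds for one hour at room temperature, IC50 from percent inhibition of influx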
# NaV1.6 = NaV1.6 (Homo sapiens (Human), UniProt Q9UQD0); assay: Sodium Influx Assay (Flux), NaV1.6; format: cell-based; conditions: Trex HEK293 cells, ANG2 dye, inactivated state;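 further: Tetracycline-induced cells, compounds applied for one hour at room temperature with modulators holding channels open, IC50 from percent inhibition of sodium influx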
# NaV1.5 = NaV1.5 (Homo sapiens (Human), UniProt Q14524); assay: Sodium Influx Assay (Flux), NaV1.5; conditions: read-out: Flux NaV1.5 IC50; Trex HEK293 cells, ANG2 dye, inactivated state
# Sequence of NaV1.5 (Q14524 other isoform, or with tags, fused parts or gaps): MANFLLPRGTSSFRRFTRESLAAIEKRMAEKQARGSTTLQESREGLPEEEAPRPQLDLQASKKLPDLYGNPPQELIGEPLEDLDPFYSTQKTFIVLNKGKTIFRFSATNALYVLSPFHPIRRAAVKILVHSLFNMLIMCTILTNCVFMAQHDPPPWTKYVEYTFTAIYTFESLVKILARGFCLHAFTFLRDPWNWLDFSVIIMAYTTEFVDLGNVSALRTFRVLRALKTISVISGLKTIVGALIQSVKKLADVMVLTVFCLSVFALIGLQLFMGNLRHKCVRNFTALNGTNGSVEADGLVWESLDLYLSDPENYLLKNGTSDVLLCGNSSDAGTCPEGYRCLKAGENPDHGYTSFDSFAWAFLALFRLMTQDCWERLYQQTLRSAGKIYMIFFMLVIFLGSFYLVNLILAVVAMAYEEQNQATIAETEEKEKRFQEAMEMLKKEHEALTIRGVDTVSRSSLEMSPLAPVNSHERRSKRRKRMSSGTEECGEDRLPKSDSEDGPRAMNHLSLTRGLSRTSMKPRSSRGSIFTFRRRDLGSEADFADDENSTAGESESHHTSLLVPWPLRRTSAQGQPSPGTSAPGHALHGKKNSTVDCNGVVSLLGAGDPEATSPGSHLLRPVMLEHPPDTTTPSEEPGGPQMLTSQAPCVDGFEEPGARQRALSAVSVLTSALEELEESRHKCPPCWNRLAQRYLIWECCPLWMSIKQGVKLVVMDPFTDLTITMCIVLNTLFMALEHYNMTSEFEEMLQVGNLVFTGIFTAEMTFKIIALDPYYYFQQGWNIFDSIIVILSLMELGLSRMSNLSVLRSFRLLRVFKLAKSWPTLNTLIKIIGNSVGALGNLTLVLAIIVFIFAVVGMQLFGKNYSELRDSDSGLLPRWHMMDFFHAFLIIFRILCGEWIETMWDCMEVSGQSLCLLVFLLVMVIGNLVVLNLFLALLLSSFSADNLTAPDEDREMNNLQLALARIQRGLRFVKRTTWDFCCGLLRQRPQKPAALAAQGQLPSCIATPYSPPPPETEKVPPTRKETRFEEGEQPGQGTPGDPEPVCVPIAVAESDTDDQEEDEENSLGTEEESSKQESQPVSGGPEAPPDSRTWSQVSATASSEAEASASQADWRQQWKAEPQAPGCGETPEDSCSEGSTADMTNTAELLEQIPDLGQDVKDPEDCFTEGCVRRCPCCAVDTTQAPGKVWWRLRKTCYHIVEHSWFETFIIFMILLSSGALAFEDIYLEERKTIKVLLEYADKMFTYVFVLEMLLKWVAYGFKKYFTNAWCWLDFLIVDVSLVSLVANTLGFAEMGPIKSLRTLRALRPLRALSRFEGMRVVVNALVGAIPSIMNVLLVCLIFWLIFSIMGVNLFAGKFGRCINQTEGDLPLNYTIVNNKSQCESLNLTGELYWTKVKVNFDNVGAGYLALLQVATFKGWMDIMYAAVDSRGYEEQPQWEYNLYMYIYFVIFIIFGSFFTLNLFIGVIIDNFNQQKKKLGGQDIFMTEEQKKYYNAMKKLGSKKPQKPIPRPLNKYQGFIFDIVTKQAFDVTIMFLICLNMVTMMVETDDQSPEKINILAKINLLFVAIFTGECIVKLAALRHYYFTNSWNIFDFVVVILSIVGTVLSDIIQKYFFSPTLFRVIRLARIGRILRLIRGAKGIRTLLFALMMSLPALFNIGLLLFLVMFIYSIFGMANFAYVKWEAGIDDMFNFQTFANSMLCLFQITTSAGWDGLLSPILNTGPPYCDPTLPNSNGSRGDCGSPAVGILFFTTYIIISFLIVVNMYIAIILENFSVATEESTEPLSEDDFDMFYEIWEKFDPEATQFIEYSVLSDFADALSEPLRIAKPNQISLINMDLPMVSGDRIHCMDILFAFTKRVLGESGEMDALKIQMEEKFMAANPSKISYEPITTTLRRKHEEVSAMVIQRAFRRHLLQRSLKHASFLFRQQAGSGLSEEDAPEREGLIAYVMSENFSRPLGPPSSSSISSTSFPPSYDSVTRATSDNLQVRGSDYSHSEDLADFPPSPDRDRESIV
SMILES,IC50 (NaV1.1),IC50 (NaV1.6),IC50 (NaV1.5)
"O=S(=O)(Nc1cscn1)c1c(F)cc(NCc2c(F)cccc2CN2CCC3(CCO3)C2)cc1F (stereo not drawn) [Example 155, 4-((2-((1-oxa-6-azaspiro[3.4]octan-6-yl)methyl)-6-fluorobenzyl)amino)-2,6-difluoro-N-(thiazol-4-yl)benzenesulfonamide formate]",30 µM,0.25 µM,30 µM
"O=S(=O)(Nc1cscn1)c1c(F)cc(NCc2c(F)cccc2CN2CC(O)(C(F)(F)F)C2)cc1F [Example 176, 2,6-difluoro-4-((2-fluoro-6-((3-hydroxy-3-(trifluoromethyl)azetidin-1-yl)methyl)benzyl)amino)-N-(thiazol-4-yl)benzenesulfonamide formate]",5.75 µM,0.68 µM,16.9 µM
"C[C@H](Nc1cc(F)c(S(=O)(=O)Nc2nccs2)cc1Cl)c1cccc(C(F)(F)F)c1 [Example 3, (S)-5-chloro-2-fluoro-N-(thiazol-2-yl)-4-((1-(3-(trifluoromethyl)phenyl)ethyl)amino)benzenesulfonamide]",3.38 µM,0.679 µM,5.25 µM
"O=S(=O)(Nc1nccs1)c1ccc(N[C@H]2CCCc3cccnc32)c(Cl)c1 [Example 77, (S)-3-chloro-4-((5,6,7,8-tetrahydroquinolin-8-yl)amino)-N-(thiazol-2-yl)benzenesulfonamide]",7.98 µM,8.08 µM,26.1 µM
"C[C@H](Oc1cc(F)c(S(=O)(=O)Nc2nccs2)cc1Cl)c1ccc(Cl)c(Cl)c1 [Example 108, (S)-5-chloro-4-(1-(3,4-dichlorophenyl)ethoxy)-2-fluoro-N-(thiazol-2-yl)benzenesulfonamide]",21.1 µM,14.5 µM,22.4 µM
"O=S(=O)(Nc1nccs1)c1cc(Cl)c(N[C@H](CN2CCOCC2)c2ccccc2)cc1F [Example 75, (S)-5-chloro-2-fluoro-4-((2-morpholino-1-phenylethyl)amino)-N-(thiazol-2-yl)benzenesulfonamide 2,2,2-trifluoroacetate]",13.6 µM,0.261 µM,21.7 µM
"C[C@H](Sc1cc(F)c(S(=O)(=O)Nc2nccs2)cc1Cl)c1ccccc1 [Example 125, (S)-5-chloro-2-fluoro-4-((1-phenylethyl)thio)-N-(thiazol-2-yl)benzenesulfonamide]",3.26 µM,1.73 µM,3.35 µM
"O=S(=O)(Nc1nccs1)c1cc(Cl)c(N[C@H]2CCCc3ccccc32)cc1F [Example 46, (S)-5-chloro-2-fluoro-4-((1,2,3,4-tetrahydronaphthalen-1-yl)amino)-N-(thiazol-2-yl)benzenesulfonamide]",0.999 µM,1.66 µM,7.04 µM
"C[C@H](Nc1cc(F)c(S(=O)(=O)Nc2nccs2)cc1Cl)c1cccc(Cl)c1 [Example 50, (S)-5-chloro-4-((1-(3-chlorophenyl)ethyl)amino)-2-fluoro-N-(thiazol-2-yl)benzenesulfonamide]",1.28 µM,0.169 µM,6.07 µM
"O=S(=O)(Nc1cscn1)c1cc(Cl)c(OCc2c(F)ccc(F)c2CN2CCC2)cc1F [Example 150, 4-((2-(azetidin-1-ylmethyl)-3,6-difluorobenzyl)oxy)-5-chloro-2-fluoro-N-(thiazol-4-yl)benzenesulfonamide]",30 µM,2.82 µM,8.66 µM
"O=S(=O)(Nc1nccs1)c1cc(Cl)c(NC2CCCc3cnccc32)cc1F (stereo not drawn) [Example 94, 5-chloro-2-fluoro-4-((5,6,7,8-tetrahydroisoquinolin-5-yl)amino)-N-(thiazol-2-yl)benzenesulfonamide 2,2,2-trifluoroacetate]",0.142 µM,0.423 µM,8.62 µM
"O=S(=O)(Nc1ncns1)c1ccc(N[C@@H]2CCc3ccccc32)c(Cl)c1 [Example 35, (R)-3-chloro-4-((2,3-dihydro-1H-inden-1-yl)amino)-N-(1,2,4-thiadiazol-5-yl)benzenesulfonamide]",0.301 µM,0.839 µM,8.69 µM

# More lines, main results first:
IC50 (NaV1.1),IC50 (NaV1.6),SMILES,IC50 (NaV1.5)
5.4 µM,0.046 µM,"O=S(=O)(Nc1cscn1)c1c(F)cc(NCc2c(F)cccc2CNC2CCC2)cc1F [Example 177, 4-((2-((cyclobutylamino)methyl)-6-fluorobenzyl)amino)-2,6-difluoro-N-(thiazol-4-yl)benzenesulfonamide formate]",22.3 µM
18.9 µM,0.647 µM,"O=S(=O)(Nc1cccc(F)n1)c1c(F)cc(NCc2ccccc2CN2CCC2)cc1F [Example 324, 4-((2-(azetidin-1-ylmethyl)benzyl)amino)-2,6-difluoro-N-(6-fluoropyridin-2-yl)benzenesulfonamide]",30 µM
11.2 µM,0.163 µM,"C[C@H](c1cccc(F)c1CNc1cc(F)c(S(=O)(=O)Nc2cscn2)c(F)c1)N1CCC1 [Example 279, (R)-4-((2-(1-(azetidin-1-yl)ethyl)-6-fluorobenzyl)amino)-2,6-difluoro-N-(thiazol-4-yl)benzenesulfonamide formate]",30 µM
28.9 µM,0.146 µM,"O=S(=O)(Nc1cscn1)c1cc(Cl)c(NCc2ccccc2CCN2CCC2)cc1F [Example 261, 4-((2-(2-(azetidin-1-yl)ethyl)benzyl)amino)-5-chloro-2-fluoro-N-(thiazol-4-yl)benzenesulfonamide formate]",26.3 µM
30 µM,0.27 µM,"Cc1c(NCc2c(F)cccc2CN2CCC2)ccc(S(=O)(=O)Nc2ccon2)c1F [Example 315, 4-((2-(azetidin-1-ylmethyl)-6-fluorobenzyl)amino)-2-fluoro-N-(isoxazol-3-yl)-3-methylbenzenesulfonamide 2,2,2-trifluoroacetate]",30 µM
14 µM,0.368 µM,"O=S(=O)(Nc1cscn1)c1cc(Cl)c(NCc2c(Cl)cccc2CN2CC3(CNC3)C2)cc1F [Example 291, 4-((2-((2,6-diazaspiro[3.3]heptan-2-yl)methyl)-6-chlorobenzyl)amino)-5-chloro-2-fluoro-N-(thiazol-4-yl)benzenesulfonamide 2,2,2-trifluoroacetate]",30 µM
6.5 µM,0.055 µM,"O=S(=O)(Nc1cscn1)c1c(F)cc(NCc2ccccc2CCN2CC(F)C2)cc1F [Example 320, 4-((2-(2-(3-fluoroazetidin-1-yl)ethyl)benzyl)amino)-2,6-difluoro-N-(thiazol-4-yl)benzenesulfonamide formate]",17.9 µM
30 µM,3.02 µM,"C[C@H](Nc1cc(F)c(S(=O)(=O)Nc2cscn2)cc1Cl)c1cc(OCC2COC2)ccc1F [Example 236, (S)-5-chloro-2-fluoro-4-((1-(2-fluoro-5-(oxetan-3-ylmethoxy)phenyl)ethyl)amino)-N-(thiazol-4-yl)benzenesulfonamide]",30 µM
3.38 µM,1.76 µM,"O=S(=O)(Nc1cscn1)c1c(F)cc(NCc2c(CN3CCC3)cccc2C2CC2)cc1F [Example 211, 4-((2-(azetidin-1-ylmethyl)-6-cyclopropylbenzyl)amino)-2,6-difluoro-N-(thiazol-4-yl)benzenesulfonamide 2,2,2-trifluoroacetate]",19.2 µM
3.75 µM,0.416 µM,"CCc1cccc(CN2CCC2)c1CNc1cc(F)c(S(=O)(=O)Nc2cscn2)c(F)c1 [Example 210, 4-((2-(azetidin-1-ylmethyl)-6-ethylbenzyl)amino)-2,6-difluoro-N-(thiazol-4-yl)benzenesulfonamide 2,2,2-trifluoroacetate]",26.8 µM
8.82 µM,1.22 µM,"C[C@H](Nc1cc(F)c(S(=O)(=O)Nc2cscn2)cc1Cl)c1cc(CN2CCCCC2)ccc1F [Example 256, (S)-5-chloro-2-fluoro-4-((1-(2-fluoro-5-(piperidin-1-ylmethyl)phenyl)ethyl)amino)-N-(thiazol-4-yl)benzenesulfonamide formate]",6.97 µM
15.3 µM,0.701 µM,"CN(C)Cc1ccccc1C1(Nc2cc(F)c(S(=O)(=O)Nc3cscn3)cc2Cl)CC1 [Example 217, 5-chloro-4-((1-(2-((dimethylamino)methyl)phenyl)cyclopropyl)-amino)-2-fluoro-N-(thiazol-4-yl)benzenesulfonamide 2,2,2-trifluoroacetate]",11.6 µM
9.38 µM,0.518 µM,"C=Cc1cc(S(=O)(=O)Nc2cscn2)c(F)cc1NCc1ccccc1CN1CCC1 [Example 323, 4-((2-(azetidin-1-ylmethyl)benzyl)amino)-2-fluoro-N-(thiazol-4-yl)-5-vinylbenzenesulfonamide formate]",15 µM
4.08 µM,0.213 µM,"CC1(C)CCN1Cc1cccc(Cl)c1CNc1cc(F)c(S(=O)(=O)Nc2cscn2)c(F)c1 [Example 199, 4-((2-chloro-6-((2,2-dimethylazetidin-1-yl)methyl)benzyl)amino)-2,6-difluoro-N-(thiazol-4-yl)benzenesulfonamide formate]",30 µM
27 µM,1.65 µM,"C[C@H](Nc1ccc(S(=O)(=O)Nc2cscn2)cc1C#N)c1ccccc1F [Example 239, (S)-3-cyano-4-((1-(2-fluorophenyl)ethyl)amino)-N-(thiazol-4-yl)benzenesulfonamide]",28.9 µM
29.2 µM,1.37 µM,"O=S(=O)(Nc1ccon1)c1c(F)cc(NCc2ccccc2CN2CCC2)cc1F [Example 259, 4-((2-(azetidin-1-ylmethyl)benzyl)amino)-2,6-difluoro-N-(isoxazol-3-yl)benzenesulfonamide]",30 µM
9.67 µM,0.049 µM,"O=S(=O)(Nc1cscn1)c1c(F)cc(NCc2c(F)cccc2CN2CCC2)cc1F [Example 302, 4-((2-(azetidin-1-ylmethyl)-6-fluorobenzyl)amino)-2,6-difluoro-N-(thiazol-4-yl)benzenesulfonamide 2,2,2-trifluoroacetate]",23.9 µM
